Experimental data from patent publication US8551978B2 (Theravance, Inc., priority 2009, dated 2013).
pEC50, pKi: −log10 of the molar value. Counter-ions that a name gives are not always drawn. Like-named read-outs stand apart in the source and are kept apart here.

Tests used:
hβ2 adrenergic receptor = hβ2 adrenergic receptor (Homo sapiens (Human), UniProt P07550); assay: Assay for determining adrenergic receptor agonist potency (cAMP Flashplate, HEK-293 cells); format: cell-based; settings: data rounded to nearest 1 nM
Chain of hβ2 adrenergic receptor (P07550 whole entry): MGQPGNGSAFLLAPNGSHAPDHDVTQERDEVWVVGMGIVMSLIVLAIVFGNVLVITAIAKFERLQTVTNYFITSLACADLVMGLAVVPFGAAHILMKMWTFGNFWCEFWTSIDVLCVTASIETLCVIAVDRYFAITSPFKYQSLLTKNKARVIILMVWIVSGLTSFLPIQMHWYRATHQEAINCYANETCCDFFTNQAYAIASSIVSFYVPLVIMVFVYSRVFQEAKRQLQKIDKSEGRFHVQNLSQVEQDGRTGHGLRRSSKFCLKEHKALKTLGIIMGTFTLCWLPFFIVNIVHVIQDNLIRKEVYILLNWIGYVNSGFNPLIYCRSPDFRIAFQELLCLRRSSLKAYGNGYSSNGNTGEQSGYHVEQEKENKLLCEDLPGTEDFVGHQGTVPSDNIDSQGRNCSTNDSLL
Procedure: The cell monolayer was lifted with 2 mM EDTA in PBS. Cells were pelleted by centrifugation at 1,000 rpm, and cell pellets were either stored frozen at −80° C. or membranes were prepared immediately for use. cAMP assays were performed in a radioimmunoassay format using the Flashplate Adenylyl Cyclase Activation Assay System with [^125I]-cAMP (NEN SMP004, PerkinElmer Life Sciences Inc., Boston, Mass.), according to the manufacturers instructions. […] Cells were rinsed with PBS and detached in dPBS (Dulbecco's Phosphate Buffered Saline, without CaCl2 and MgCl2) containing 2 mM EDTA or Trypsin-EDTA solution (0.05% trypsin/0.53 mM EDTA). After counting cells in Coulter cell counter, cells were pelleted by centrifugation at 1,000 rpm and re-suspended in stimulation buffer containing TBMX (PerkinElmer Kit) pre-warmed to room temperature to a concentration of 1.6×10^6 to 2.8×10^6 cells/mL. About 40,000 to 80,000 cells per well were used in this assay. […] Reactions were incubated for 10 min at 37° C. and stopped by adding 100 μL of cold detection buffer containing [^125I]-cAMP (NEN SMP004, PerkinElmer Life Sciences, Boston, Mass.). […] Data were analyzed by nonlinear regression analysis with the GraphPad Prism Software package (GraphPad Software, Inc., San Diego, Calif.) with the sigmoidal equation. The Cheng-Prusoff equation (Cheng Y, and Prusoff W H., Biochemical Pharmacology, 1973, 22, 23, 3099-108) was used to calculate the EC50 values.

[1] = system: MCh-induced bronchoconstriction; assay: Einthoven assay: bronchoprotection against methacholine (MCh)-induced bronchoconstriction; format: in vivo, rat; settings: for inhibition in vivo at 0.1 mg: inhaled or nasal, read-out: Broncho. at 24 h
Procedure: This assay measures the ability of a test compound to provide bronchoprotection against methacholine (MCh)-induced bronchoconstriction in a rat. Male Sprague-Dawley rats (Harlan, Indianapolis, Ind.), weighing between 200 g and 350 g, were used for all studies. Test compound or vehicle (sterile deionized water) were dosed by inhalation (1H) over a 10 min period in a pie shaped inhalation chamber (R+S Molds, San Carlos, Calif.) using 5 mL of dosing solution. […] Rats were dosed with 100 μg of test compound unless otherwise indicated. At predetermined time points, rats were anesthetized with an intraperitoneal (IP) injection of 120 mg/kg inactin (thiobutabarbital). A supplemental dose (40 mg/kg, IP) was administered if the animal responded to physical stimuli (e.g. toe pinch). The surgical site was shaved and a 1-2 cm midline incision of the ventral aspect of the neck was made. The jugular vein was isolated and cannulated with a saline-filled polyethylene catheter (PE-50) to allow IV infusion of MCh. Trachea was dissected free and cannulated with a 14G needle (#NE-014, Small Parts, Miami Lakes, Fla.). After placement of the tracheal cannula, each rat was ventilated using a respirator (Model 683, Harvard Apparatus, Inc., MA) set at a stroke volume of 1 mL/100 g body weight (but not exceeding 2.5 mL volume) and a rate of 90 strokes per minute. A T-connector was placed along the respirator expiratory tubing to allow for measurement of changes in ventilation pressure (VP) using a Biopac transducer that was connected to a Biopac […]) pre-amplifier. Body temperature was maintained at 37° C. using a heating pad. Changes in VP were recorded using the Acknowledge Data Collection Software (Santa Barbara, Calif.). Baseline values were collected for at least 2.5 min. Rats were then challenged with non-cumulative intravenous (IV) infusions of 40 and 80 μg/kg MCh. MCh was infused intravenously for 2.5 minutes from a syringe pump (sp210iw, World Precision Instruments, Inc., Sarasota, Fla.) at a rate of 2 mL/kg/min, with a 2 minute interval between the two doses of MCh. Changes in ventilation pressure (cm H2O) in treated animals are expressed as % inhibition of MCh response relative to control animals. Other bronchoconstrictors, such as histamine and acetylcholine, can be used in place of MCh in this assay. Additionally, guinea pigs can be used instead of rats. […] Inhibition greater than or equal to 30 percent at 24 h is indicative of a long duration of action.

hM3 muscarinic receptor = hM3 muscarinic receptor (Homo sapiens (Human), UniProt P20309); assay: Radioligand binding assay for muscarinic receptors ([3H]-NMS displacement, CHO cell membranes)
Chain of hM3 muscarinic receptor (P20309 whole entry): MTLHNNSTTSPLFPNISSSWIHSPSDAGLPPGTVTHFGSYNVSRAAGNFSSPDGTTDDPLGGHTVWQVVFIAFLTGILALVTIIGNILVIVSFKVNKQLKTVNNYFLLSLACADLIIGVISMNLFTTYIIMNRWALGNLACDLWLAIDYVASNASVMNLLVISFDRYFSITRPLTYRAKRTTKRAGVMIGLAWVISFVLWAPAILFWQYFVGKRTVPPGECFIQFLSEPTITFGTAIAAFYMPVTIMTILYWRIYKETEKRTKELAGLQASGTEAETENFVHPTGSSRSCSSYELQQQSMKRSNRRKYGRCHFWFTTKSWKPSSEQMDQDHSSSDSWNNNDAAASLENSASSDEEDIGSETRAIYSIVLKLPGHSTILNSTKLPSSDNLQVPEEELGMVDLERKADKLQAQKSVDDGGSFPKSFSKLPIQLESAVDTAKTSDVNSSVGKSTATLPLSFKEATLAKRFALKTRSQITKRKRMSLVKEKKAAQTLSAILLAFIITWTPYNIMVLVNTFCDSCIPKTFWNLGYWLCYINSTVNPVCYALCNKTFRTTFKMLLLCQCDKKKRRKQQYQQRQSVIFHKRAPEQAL
Procedure: The cells were grown in a 5% CO2, 37° C. incubator and lifted with 2 mM EDTA in dPBS. Cells were collected by 5 minute centrifugation at 650×g, and cell pellets were either stored frozen at −80° C. or membranes were prepared immediately for use. For membrane preparation, cell pellets were resuspended in lysis buffer and homogenized with a Polytron PT-2100 tissue disrupter (Kinematica AG; 20 seconds×2 bursts). Crude membranes were centrifuged at 40,000×g for 15 minutes at 4° C. The membrane pellet was then resuspended with re-suspension buffer and homogenized again with the Polytron tissue disrupter. The protein concentration of the membrane suspension was determined by the method described in Lowry et al., 1951, […], 193, 265. All membranes were stored frozen in aliquots at −80° C. or used immediately. […] The membranes were briefly homogenized using a Polytron tissue disruptor (10 seconds) prior to assay plate addition. […] The test compounds were initially dissolved to a concentration of 400 μM in dilution buffer and then serially diluted 5× with dilution buffer to final concentrations ranging from 10 μM to […]. The order of addition and volumes added to the assay plates were as follows: 25 μL radioligand, 25 μL diluted test compound, and 50 μL membranes. Assay plates were incubated for 6 hours at 37° C. […] Filter plates were rinsed three times with wash buffer (10 mM HEPES) to remove unbound radioactivity. The plates were then air-dried and 50 μL Microscint-20 liquid scintillation fluid (PerkinElmer, Inc.) were added to each well. The plates were then counted in a PerkinElmer Topcount liquid scintillation counter (PerkinElmer, Inc.). Binding data were analyzed by nonlinear regression analysis with the GraphPad Prism Software package (GraphPad Software, Inc., San Diego, Calif.) using the one-site competition model. […] These summary statistics were then converted back to K; values for data reporting.

[2] = rat, 100 μg by inhalation, 24 h after administration
[3] = hM3 Muscarinic Receptor Binding, data rounded to nearest 0.1 nM

COc1ccc(CC(=O)NCc2ccc(N(C)C(=O)CCN3CCC(OC(=O)Nc4ccccc4-c4ccccc4)CC3)cc2)cc1CC(C)NC[C@H](O)c1ccc(O)c2[nH]c(=O)ccc12 (stereo partly drawn) [Compound I-81]
pEC50 (hβ2 adrenergic receptor): 9.00 | inhibition in vivo at 0.1 mg [1, 2]: > 30% | pKi (hM3 muscarinic receptor; [3]): 10.00

CN(CCCCC(=O)Nc1ccc(CNC[C@H](O)c2ccc(O)c3[nH]c(=O)ccc23)cc1)C(=O)CCN1CCC(OC(=O)Nc2ccccc2-c2ccccc2)CC1 [Compound I-14, Biphenyl-2-ylcarbamic Acid 1-(2-{[4-(4-{[(R)-2-hydroxy-2-(8-hydroxy-2-oxo-1,2-dihydroquinolin-5-yl)ethylamino]methyl}phenylcarbamoyl)-butyl]methylcarbamoyl}ethyl)piperidin-4-yl Ester Ditrifluoroacetic Acid Salt]
pEC50 (hβ2 adrenergic receptor): 9.00 | inhibition in vivo at 0.1 mg ([1]; Rattus norvegicus, 24 h): > 30% | pKi (hM3 muscarinic receptor): 10.00

C[C@H](Cc1cccc(CNC(=O)Cc2ccc(N(C)C(=O)CCN3CCC(OC(=O)Nc4ccccc4-c4ccccc4)CC3)cc2)c1)NC[C@H](O)c1ccc(O)c2[nH]c(=O)ccc12 [Compound I-68]
pEC50 (hβ2 adrenergic receptor): 9.00 | inhibition in vivo at 0.1 mg [1, 2]: > 30% | pKi (hM3 muscarinic receptor): 10.00

Cc1cc(NC(=O)c2cccc(N(C)C(=O)CCN3CCC(OC(=O)Nc4ccccc4-c4ccccc4)CC3)c2)c(C)cc1CNC[C@H](O)c1ccc(O)c2[nH]c(=O)ccc12 [Compound I-30]
pEC50 (hβ2 adrenergic receptor): 9.00 | Broncho. at 24 h [1, 2]: No | pKi (hM3 muscarinic receptor): 9.70

CC(Cc1ccc(CC(=O)NCc2ccc(N(C)C(=O)CCN3CCC(OC(=O)Nc4ccccc4-c4ccccc4)CC3)cc2)cc1)NC[C@H](O)c1ccc(O)c2[nH]c(=O)ccc12 (stereo partly drawn) [Compound I-80]
pEC50 (hβ2 adrenergic receptor): 9.00 | Broncho. at 24 h [1, 2]: No | pKi (hM3 muscarinic receptor; [3]): 9.70

C[C@@H](Cc1cccc(CC(=O)NCc2ccc(N(C)C(=O)CCN3CCC(OC(=O)Nc4ccccc4-c4ccccc4)CC3)cc2)c1)NC[C@H](O)c1ccc(O)c2[nH]c(=O)ccc12 [Compound I-79]
pEC50 (hβ2 adrenergic receptor): 9.00 | Broncho. at 24 h [1, 2]: No | pKi (hM3 muscarinic receptor): 10.00

COc1cc(CNC[C@H](O)c2ccc(O)c3[nH]c(=O)ccc23)ccc1NC(=O)CCCCN(C)C(=O)CCN1CCC(OC(=O)Nc2ccccc2-c2ccccc2)CC1 [Compound I-16]
pEC50 (hβ2 adrenergic receptor): 9.00 | inhibition in vivo at 0.1 mg [1, 2]: > 30% | pKi (hM3 muscarinic receptor): 10.00

COc1ccc(CC(=O)NCc2ccc(N(C)C(=O)CCN3CCC(OC(=O)Nc4ccccc4-c4ccccc4)CC3)cc2)cc1C[C@@H](C)NC[C@H](O)c1ccc(O)c2[nH]c(=O)ccc12 [Compound I-82]
pEC50 (hβ2 adrenergic receptor): 9.00 | inhibition in vivo at 0.1 mg [1, 2]: > 30% | pKi (hM3 muscarinic receptor; [3]): 10.00

C[C@@H](Cc1ccc(CCNC(=O)Cc2ccc(N(C)C(=O)CCN3CCC(OC(=O)Nc4ccccc4-c4ccccc4)CC3)cc2)cc1)NC[C@H](O)c1ccc(O)c2[nH]c(=O)ccc12 [Compound I-89]
pEC50 (hβ2 adrenergic receptor): 9.00 | inhibition in vivo at 0.1 mg [1, 2]: > 30% | pKi (hM3 muscarinic receptor): 10.00

Cc1cc(CNC[C@H](O)c2ccc(O)c3[nH]c(=O)ccc23)ccc1NC(=O)c1ccc(C)c(N(C)C(=O)CCN2CCC(OC(=O)Nc3ccccc3-c3ccccc3)CC2)c1 [Compound I-28]
pEC50 (hβ2 adrenergic receptor): 9.00 | Broncho. at 24 h [1, 2]: No | pKi (hM3 muscarinic receptor): 9.70

CC(Cc1ccc(CNC(=O)Cc2ccc(N(C)C(=O)CCN3CCC(OC(=O)Nc4ccccc4-c4ccccc4)CC3)cc2)cc1)NC[C@H](O)c1ccc(O)c2[nH]c(=O)ccc12 (stereo partly drawn) [Compound I-66]
pEC50 (hβ2 adrenergic receptor): 9.00 | Broncho. at 24 h [1, 2]: No | pKi (hM3 muscarinic receptor): 9.70

C[C@@H](Cc1cccc(CC(=O)NCCCN(C)C(=O)CCN2CCC(OC(=O)Nc3ccccc3-c3ccccc3)CC2)c1)NC[C@H](O)c1ccc(O)c2[nH]c(=O)ccc12 [Compound I-13, Biphenyl-2-ylcarbamic Acid 1-[2-({3-[2-(3-{(S)-2-[(R)-2-Hydroxy-2-(8-hydroxy-2-oxo-1,2-dihydroquinolin-5-yl)ethylamino]propyl}phenyl)acetylamino]-propyl}methylcarbamoyl)ethyl]piperidin-4-yl Ester Ditrifluoroacetic Acid Salt]
pEC50 (hβ2 adrenergic receptor): 9.00 | inhibition in vivo at 0.1 mg ([1]; Rattus norvegicus, 24 h): > 30% | pKi (hM3 muscarinic receptor): 10.00

C[C@@H](Cc1cccc(CNC(=O)Cc2ccc(N(C)C(=O)CCN3CCC(OC(=O)Nc4ccccc4-c4ccccc4)CC3)cc2)c1)NC[C@H](O)c1ccc(O)c2[nH]c(=O)ccc12 [Compound I-69]
pEC50 (hβ2 adrenergic receptor): 9.00 | inhibition in vivo at 0.1 mg [1, 2]: > 30% | pKi (hM3 muscarinic receptor): 10.00

C[C@H](Cc1cccc(CC(=O)NCCCN(C)C(=O)CCN2CCC(OC(=O)Nc3ccccc3-c3ccccc3)CC2)c1)NC[C@H](O)c1ccc(O)c2[nH]c(=O)ccc12 [Compound I-12]
pEC50 (hβ2 adrenergic receptor): 9.00 | Broncho. at 24 h [1, 2]: No | pKi (hM3 muscarinic receptor): 10.00

COc1cc(CNC[C@H](O)c2ccc(O)c3[nH]c(=O)ccc23)ccc1NC(=O)CCCN(C)C(=O)CCN1CCC(OC(=O)Nc2ccccc2-c2ccccc2)CC1 [Compound I-3]
pEC50 (hβ2 adrenergic receptor): 9.00 | inhibition in vivo at 0.1 mg [1, 2]: > 30% | pKi (hM3 muscarinic receptor; [3]): 10.00

COc1cc(NC(=O)CCCN(C)C(=O)CCN2CCC(OC(=O)Nc3ccccc3-c3ccccc3)CC2)ccc1CNC[C@H](O)c1ccc(O)c2[nH]c(=O)ccc12 [Compound I-4]
pEC50 (hβ2 adrenergic receptor): 8.70 | inhibition in vivo at 0.1 mg [1, 2]: > 30% | pKi (hM3 muscarinic receptor; [3]): 10.00

CN(CCCCC(=O)Nc1ccc(CCNC[C@H](O)c2ccc(O)c3[nH]c(=O)ccc23)cc1)C(=O)CCN1CCC(OC(=O)Nc2ccccc2-c2ccccc2)CC1 [Compound I-21]
pEC50 (hβ2 adrenergic receptor): 9.00 | inhibition in vivo at 0.1 mg [1, 2]: > 30% | pKi (hM3 muscarinic receptor): 10.00

Cc1ccc(C(=O)Nc2ccc(CC(C)NC[C@H](O)c3ccc(O)c4[nH]c(=O)ccc34)cc2)cc1N(C)C(=O)CCN1CCC(OC(=O)Nc2ccccc2-c2ccccc2)CC1 (stereo partly drawn) [Compound I-41]
pEC50 (hβ2 adrenergic receptor): 9.00 | Broncho. at 24 h [1, 2]: No | pKi (hM3 muscarinic receptor; [3]): 9.52

CN(C(=O)CCN1CCC(OC(=O)Nc2ccccc2-c2ccccc2)CC1)c1ccc(CC(=O)NCc2cccc(CCNC[C@H](O)c3ccc(O)c4[nH]c(=O)ccc34)c2)cc1 [Compound I-65]
pEC50 (hβ2 adrenergic receptor): 9.00 | inhibition in vivo at 0.1 mg [1, 2]: > 30% | pKi (hM3 muscarinic receptor): 10.00
